Source: patent US10758534B2 (Vertex Pharmaceuticals Incorporated, priority 2014, dated 2020)

molecular target: T1, F508del (Homo sapiens, UniProt P13569, DEL508-508); assay: Protocol 1: membrane potential optical assay (FLIPR III, voltage sensing dye), identification of potentiator compounds; assay type: cell-based; conditions: Table 3, compounds of Table 1
T1 construct: expressed in transfected cells
How it was run: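 Mouse NIH 3T3 fibroblasts stably expressing F508del, temperature-corrected at 27 °C for 24 h, pretreated with compound, then loaded with voltage-sensing redistribution dye. Forskolin was added in a single step with a chloride gradient (chloride-free gluconate bath; Bath Solution #1 HEPES pH 7.4). Membrane-potential fluorescence read on FLIPR III.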

T1 sequence (P13569 with tags, fused parts or gaps DEL508-508): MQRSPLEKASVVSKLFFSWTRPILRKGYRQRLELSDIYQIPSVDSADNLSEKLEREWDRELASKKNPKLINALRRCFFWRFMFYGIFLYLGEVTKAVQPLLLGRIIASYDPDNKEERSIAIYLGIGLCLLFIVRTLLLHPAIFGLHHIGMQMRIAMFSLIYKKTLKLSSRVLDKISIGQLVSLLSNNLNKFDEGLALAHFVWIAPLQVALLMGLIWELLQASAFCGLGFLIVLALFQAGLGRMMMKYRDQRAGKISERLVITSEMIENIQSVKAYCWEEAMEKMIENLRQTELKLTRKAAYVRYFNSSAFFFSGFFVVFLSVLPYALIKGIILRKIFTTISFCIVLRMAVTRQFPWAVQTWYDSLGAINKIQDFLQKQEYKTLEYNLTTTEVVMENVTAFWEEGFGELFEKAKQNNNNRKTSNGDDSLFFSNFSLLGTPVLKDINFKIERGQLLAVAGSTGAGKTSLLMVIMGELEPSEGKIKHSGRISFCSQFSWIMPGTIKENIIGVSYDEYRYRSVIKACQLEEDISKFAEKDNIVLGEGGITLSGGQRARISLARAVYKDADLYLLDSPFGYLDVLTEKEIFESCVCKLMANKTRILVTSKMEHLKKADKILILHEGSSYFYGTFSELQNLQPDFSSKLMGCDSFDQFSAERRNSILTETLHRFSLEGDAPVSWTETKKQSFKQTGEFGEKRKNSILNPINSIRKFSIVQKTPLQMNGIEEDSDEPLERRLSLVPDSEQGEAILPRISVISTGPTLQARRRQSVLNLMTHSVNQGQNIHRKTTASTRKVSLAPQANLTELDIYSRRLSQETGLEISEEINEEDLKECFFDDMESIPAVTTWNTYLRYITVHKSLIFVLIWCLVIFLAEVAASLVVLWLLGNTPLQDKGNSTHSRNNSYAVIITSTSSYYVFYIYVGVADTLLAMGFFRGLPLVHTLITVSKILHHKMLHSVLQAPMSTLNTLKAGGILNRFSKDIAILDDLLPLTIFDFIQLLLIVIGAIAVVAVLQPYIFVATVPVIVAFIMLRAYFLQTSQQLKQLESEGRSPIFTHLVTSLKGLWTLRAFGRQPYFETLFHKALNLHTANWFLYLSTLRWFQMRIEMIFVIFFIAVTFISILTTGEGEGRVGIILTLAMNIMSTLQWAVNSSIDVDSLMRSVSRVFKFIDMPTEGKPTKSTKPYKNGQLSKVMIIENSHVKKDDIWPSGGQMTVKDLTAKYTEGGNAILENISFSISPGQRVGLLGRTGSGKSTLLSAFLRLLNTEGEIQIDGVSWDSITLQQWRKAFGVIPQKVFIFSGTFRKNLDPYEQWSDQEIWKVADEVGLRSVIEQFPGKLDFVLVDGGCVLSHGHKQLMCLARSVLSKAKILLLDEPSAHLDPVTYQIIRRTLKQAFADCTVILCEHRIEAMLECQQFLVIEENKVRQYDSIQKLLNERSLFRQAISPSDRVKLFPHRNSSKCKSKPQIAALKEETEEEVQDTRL

SMILES	EC30
Cc1cc(C)c(Oc2nc(-c3cccc(C#N)c3)ccc2C(=O)NS(=O)(=O)c2cccc(N)n2)c(C)c1 [Compound 886, N-[(6-amino-2-pyridyl)sulfonyl]-6-(3-cyanophenyl)-2-(2,4,6-trimethylphenoxy)pyridine-3-carboxamide]	+++ (“+++” means <3 uM)
CC(C)COc1cc(F)cc(-c2ccc(C(=O)NS(=O)(=O)c3cccc(N)n3)c(N3CCCC(C)(C)C3)n2)c1 [Compound 887, N-[(6-amino-2-pyridyl)sulfonyl]-2-(3,3-dimethyl-1-piperidyl)-6-(3-fluoro-5-isobutoxy-phenyl)pyridine-3-carboxamide]	+++ (“+++” means <3 uM)
COc1ccc(OC)c(-c2ccc(C(=O)NS(=O)(=O)c3ccc[nH]c3=O)c(Oc3c(C)cc(C)cc3C)n2)c1 [Compound 888, 6-(2,5-dimethoxyphenyl)-N-[(2-oxo-1H-pyridin-3-yl)sulfonyl]-2-(2,4,6-trimethylphenoxy)pyridine-3-carboxamide]	++ (“++” means between 3 uM and 10 uM)
CC(C)Oc1ccc(-c2ccc(C(=O)NS(=O)(=O)c3cccc(N)n3)c(N3CCC(F)(F)CC3)n2)cn1 [Compound 889, N-[(6-amino-2-pyridyl)sulfonyl]-2-(4,4-difluoro-1-piperidyl)-6-(6-isopropoxy-3-pyridyl)pyridine-3-carboxamide]	++ (“++” means between 3 uM and 10 uM)
CC(C)c1ccc(-c2ccc(C(=O)NS(=O)(=O)c3cccc(N)n3)c(N3C[C@H](C)CC3(C)C)n2)cc1 [Compound 890, N-[(6-amino-2-pyridyl)sulfonyl]-6-(4-isopropylphenyl)-2-[(4R)-2,2,4-trimethylpyrrolidin-1-yl]pyridine-3-carboxamide]	+++ (“+++” means <3 uM)
CC(C)COc1ccc(-c2ccc(C(=O)NS(=O)(=O)c3ccc[nH]c3=O)c(N3[C@H](C)CC[C@@H]3C)n2)cc1 [Compound 891, 2-[(2S,5R)-2,5-dimethylpyrrolidin-1-yl]-6-(4-isobutoxyphenyl)-N-[(2-oxo-1H-pyridin-3-yl)sulfonyl]pyridine-3-carboxamide]	+++ (“+++” means <3 uM)
COc1ncc(-c2ccc(C(=O)NS(=O)(=O)c3cc[nH]n3)c(Oc3ccc(C)cc3C)n2)cc1C [Compound 892, 2-(2,4-dimethylphenoxy)-6-(6-methoxy-5-methyl-3-pyridyl)-N-(1H-pyrazol-3-ylsulfonyl)pyridine-3-carboxamide]	++ (“++” means between 3 uM and 10 uM)
COc1ncc(-c2ccc(C(=O)NS(=O)(=O)c3nccnc3N)c(Oc3ccc(C)cc3C)n2)cc1C [Compound 893, N-(3-aminopyrazin-2-yl)sulfonyl-2-(2,4-dimethylphenoxy)-6-(6-methoxy-5-methyl-3-pyridyl)pyridine-3-carboxamide]	+++ (“+++” means <3 uM)
CC(C)COc1cc(F)cc(-c2ccc(C(=O)NS(=O)(=O)c3cccc(N)n3)c(OCC3CC3(C)C)n2)c1 (centres unmarked) [Compound 894, N-[(6-amino-2-pyridyl)sulfonyl]-2-[(2,2-dimethylcyclopropyl)methoxy]-6-(3-fluoro-5-isobutoxy-phenyl)pyridine-3-carboxamide]	+++ (“+++” means <3 uM)
Cc1cc(C)c(CN2Cc3ccccc3C2(C)C(=O)NS(=O)(=O)c2cccc(N)n2)c(C)c1 (centres unmarked) [Compound 895, N-[(6-amino-2-pyridyl)sulfonyl]-1-methyl-2-[(2,4,6-trimethylphenyl)methyl]isoindoline-1-carboxamide]	+++ (“+++” means <3 uM)
CC(C)COc1cc(-c2ccc(C(=O)NS(=O)(=O)c3ccc[nH]c3=O)c(N3[C@H](C)CC[C@@H]3C)n2)ccc1Cl [Compound 902, 6-(4-chloro-3-isobutoxy-phenyl)-2-[(2S,5R)-2,5-dimethylpyrrolidin-1-yl]-N-[(2-oxo-1H-pyridin-3-yl)sulfonyl]pyridine-3-carboxamide]	+++ (“+++” means <3 uM)
CC(C)Oc1ccc(-c2ccc(C(=O)NS(=O)(=O)c3cccc(N)n3)c(N3C4CCC3CC4)n2)cn1 [Compound 903, N-[(6-amino-2-pyridyl)sulfonyl]-2-(7-azabicyclo[2.2.1]heptan-7-yl)-6-(6-isopropoxy-3-pyridyl)pyridine-3-carboxamide]	++ (“++” means between 3 uM and 10 uM)
CC(C)COc1cc(F)cc(-c2ccc(C(=O)NS(=O)(=O)c3ccn[nH]3)c(N3CC(C)CC3(C)C)n2)c1 (centres unmarked) [Compound 904, 6-(3-fluoro-5-isobutoxy-phenyl)-N-(1H-pyrazol-5-ylsulfonyl)-2-(2,2,4-trimethylpyrrolidin-1-yl)pyridine-3-carboxamide]	+++ (“+++” means <3 uM)
CC(C)COc1cc(F)cc(-c2ccc(C(=O)NS(=O)(=O)c3cccc(N)n3)c(N3CCC4CC43)n2)c1 (centres unmarked) [Compound 906, N-[(6-amino-2-pyridyl)sulfonyl]-2-(4-azabicyclo[3.1.0]hexan-4-yl)-6-(3-fluoro-5-isobutoxy-phenyl)pyridine-3-carboxamide]	+++ (“+++” means <3 uM)
CC(C)COc1cc(F)cc(-c2ccc(C(=O)NS(=O)(=O)c3ccn[nH]3)c(N3CCCC(C(F)(F)F)C3)n2)c1 (centres unmarked) [Compound 907, 6-(3-fluoro-5-isobutoxy-phenyl)-N-(1H-pyrazol-5-ylsulfonyl)-2-[3-(trifluoromethyl)-1-piperidyl]pyridine-3-carboxamide]	+++ (“+++” means <3 uM)
CC(C)COc1cc(F)cc(-c2ccc(C(=O)NS(=O)(=O)c3ccn[nH]3)c(N3CCC[C@@H](c4ccccc4)C3)n2)c1 [Compound 912, 6-(3-fluoro-5-isobutoxy-phenyl)-2-[(3S)-3-phenyl-1-piperidyl]-N-(1H-pyrazol-5-ylsulfonyl)pyridine-3-carboxamide]	+++ (“+++” means <3 uM)

Other lines, results leading:

EC30	SMILES
+++ (“+++” means <3 uM)	CC1CN(c2nc(-c3ccc(C(C)C)nc3)ccc2C(=O)NS(=O)(=O)c2cccc(N)n2)C(C)(C)C1 (centres unmarked) [Compound 896, N-[(6-amino-2-pyridyl)sulfonyl]-6-(6-isopropyl-3-pyridyl)-2-(2,2,4-trimethylpyrrolidin-1-yl)pyridine-3-carboxamide]
+++ (“+++” means <3 uM)	COc1cc(Cl)ccc1-c1ccc(C(=O)NS(=O)(=O)c2cccc(N)n2)c(Oc2c(C)cc(C)cc2C)n1 [Compound 897, N-[(6-amino-2-pyridyl)sulfonyl]-6-(4-chloro-2-methoxy-phenyl)-2-(2,4,6-trimethylphenoxy)pyridine-3-carboxamide]
+++ (“+++” means <3 uM)	CC(C)CN(C)c1cc(-c2ccc(C(=O)NS(=O)(=O)c3cccc(N)n3)c(N3CC(C)CC3(C)C)n2)ccn1 (centres unmarked) [Compound 898, N-[(6-amino-2-pyridyl)sulfonyl]-6-[2-[isobutyl(methyl)amino]-4-pyridyl]-2-(2,2,4-trimethylpyrrolidin-1-yl)pyridine-3-carboxamide]
+++ (“+++” means <3 uM)	Cc1cc(C)c(Oc2nc3c(cc2C(=O)NS(=O)(=O)c2ccc[nH]c2=O)CCCC3(C)C)c(C)c1 [Compound 899, 8,8-dimethyl-N-[(2-oxo-1H-pyridin-3-yl)sulfonyl]-2-(2,4,6-trimethylphenoxy)-6,7-dihydro-5H-quinoline-3-carboxamide]
+++ (“+++” means <3 uM)	CCc1ccc(-c2ccc(C(=O)NS(=O)(=O)c3cccc(N)n3)c(Oc3c(C)cc(C)cc3C)n2)cc1 [Compound 900, N-[(6-amino-2-pyridyl)sulfonyl]-6-(4-ethylphenyl)-2-(2,4,6-trimethylphenoxy)pyridine-3-carboxamide]
++ (“++” means between 3 uM and 10 uM)	CCOc1ccc(-c2ccc(C(=O)NS(=O)(=O)c3ccc[nH]c3=O)c(Oc3c(C)cc(C)cc3C)n2)cc1F [Compound 901, 6-(4-ethoxy-3-fluoro-phenyl)-N-[(2-oxo-1H-pyridin-3-yl)sulfonyl]-2-(2,4,6-trimethylphenoxy)pyridine-3-carboxamide]
+++ (“+++” means <3 uM)	Cc1cc(OC(C)C)ncc1-c1ccc(C(=O)NS(=O)(=O)c2cccc(N)n2)c(N2CC(C)CC2(C)C)n1 (centres unmarked) [Compound 905, N-[(6-amino-2-pyridyl)sulfonyl]-6-(6-isopropoxy-4-methyl-3-pyridyl)-2-(2,2,4-trimethylpyrrolidin-1-yl)pyridine-3-carboxamide]
+ (“+” means greater than 10 uM)	Cc1cc(C)c(Oc2nc(-c3cccc(O)c3)ccc2C(=O)NS(=O)(=O)c2cccc(N)n2)c(C)c1 [Compound 908, N-[(6-amino-2-pyridyl)sulfonyl]-6-(3-hydroxyphenyl)-2-(2,4,6-trimethylphenoxy)pyridine-3-carboxamide]
+++ (“+++” means <3 uM)	Cc1cc(C)c(Oc2nc(-c3cccnc3OC(C)C)ccc2C(=O)NS(=O)(=O)c2cccc(N)n2)c(C)c1 [Compound 909, N-[(6-amino-2-pyridyl)sulfonyl]-6-(2-isopropoxy-3-pyridyl)-2-(2,4,6-trimethylphenoxy)pyridine-3-carboxamide]
+++ (“+++” means <3 uM)	CCOc1ccc(-c2ccc(C(=O)NS(=O)(=O)c3cccc(N)n3)c(N3CCC(C)CC3)n2)cc1 [Compound 910, N-[(6-amino-2-pyridyl)sulfonyl]-6-(4-ethoxyphenyl)-2-(4-methyl-1-piperidyl)pyridine-3-carboxamide]
+++ (“+++” means <3 uM)	Cc1cc(C)c(Oc2nc(C(C)(C)C)ccc2C(=O)NS(=O)(=O)c2ccnn2C)c(C)c1 [Compound 911, 6-tert-butyl-N-(2-methylpyrazol-3-yl)sulfonyl-2-(2,4,6-trimethylphenoxy)pyridine-3-carboxamide]
++ (“++” means between 3 uM and 10 uM)	CC(C)Oc1ccc(-c2ccc(C(=O)NS(=O)(=O)c3cccc(N)n3)c(N3CCC(F)CC3)n2)cn1 [Compound 913, N-[(6-amino-2-pyridyl)sulfonyl]-2-(4-fluoro-1-piperidyl)-6-(6-isopropoxy-3-pyridyl)pyridine-3-carboxamide]
+++ (“+++” means <3 uM)	Cc1cc(C)c(Oc2nc(-c3cc(F)cc(OC(C)C)c3)ccc2C(=O)NS(=O)(=O)c2cc[nH]n2)c(C)c1 [Compound 914, 6-(3-fluoro-5-isopropoxy-phenyl)-N-(1H-pyrazol-3-ylsulfonyl)-2-(2,4,6-trimethylphenoxy)pyridine-3-carboxamide]
